Measured values from US8969554B2, “6-acyl-1,2,4-triazine-3,5-dione derivative and herbicides” (Kumiai Chemical Industry Co., Ltd., priority 2010, dated 2015).

Legend:
Format in all cases: in vivo
Design in all cases: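 index 0 to 10 in 10% steps of herbicidal effect with 10 meaning complete death and 0 below 10%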
A. retroflexus [1] = assay: Herbicidal activity by field soil treatment (Test example 2); conditions: 1000 g effective component per hectare, day 21 after the treatment
Description: (§1) [table] Test for Determining Herbicidal Activity by Field Soil Treatment A 80 cm^2 wide plastic pot was filled with a field soil and seeds of each of Echinochloa crus-galli, foxtail, Indian millet, and A. retroflexus were sowed and then covered with soil. The wettable powder produced with reference to the Formulation example 1 was diluted water, and applied on the soil surface by using a small sprayer in an amount of 1000 liters per hectare so that the effective component is 1000 g per hectare. After that, the plants were cultivated in a greenhouse, and on day 21 after the treatment, evaluation was made by the criteria described in Table 72 for determining the herbicidal effects.

Indian millet [2] = assay: Herbicidal activity by field foliage treatment (Test example 3); conditions: 1000 g effective component per hectare, day 14 after the treatment
Description: (§2) [table] Test for Determining Herbicidal Activity by Field Foliage Treatment A 80 cm^2 wide plastic pot was filled with a field soil and seeds of each of Indian millet and A. retroflexus were sowed and then incubated for 2 weeks in a green house. The wettable powder produced with reference to the Formulation example 1 was diluted water, and applied from the air to entire body of the plant as foliage treatment by using a small sprayer in an amount of 1000 liters per hectare so that the effective component is 1000 g per hectare. After that, the plants were cultivated in a greenhouse, and on day 14 after the treatment, evaluation was made by the criteria described in Table 72 for determining the herbicidal effects.

A. retroflexus [3] = assay: as above; conditions: 1000 g effective component per hectare, day 14 after the treatment
Description: as §2

Scirpus juncoides Rocxb. = assay: Herbicidal activity by paddy field soil treatment (Test Example 1); conditions: applied on water surface, 1000 g of effective component per hectare, day 21 after the treatment
Description: (§3) Test for Determining Herbicidal Activity by Paddy Field Soil Treatment A 100 cm^2 wide plastic pot was filled with a paddy field soil and, after watering and shuffling, seeds of each of Echinochloa oryzicola, Monochoria vaginalis, and Scirpus juncoides Rocxb. were sowed and watered to a depth of 3 cm. On the next day, the wettable powder obtained in view of Formulation example 1 was diluted with water and applied on water surface. The application amount was 1000 g of effective component per hectare. After that, the plants were cultivated in a greenhouse, and on day 21 after the treatment, evaluation was made by the criteria of Table 72 for determining the herbicidal effects. [table]

Monochoria vaginalis = assay: as above; conditions: 1000 g of effective component per hectare, evaluated on day 21 after the treatment, criteria of Table 72
Description: as §3

Indian millet [4] = assay: Herbicidal activity by field soil treatment (Test example 2); conditions: 1000 g effective component per hectare, day 21 after the treatment
Description: as §1

Echinochloa oryzicola = assay: Herbicidal activity by paddy field soil treatment (Test Example 1); conditions: 1000 g of effective component per hectare, evaluated on day 21 after the treatment, criteria of Table 72
Description: as §3

Echinochloa crus-galli = assay: Herbicidal activity by field foliage treatment (Test example 3); conditions: 1000 g effective component per hectare, day 14 after the treatment
Description: as §2, with “Test example 3” for “[table]”

SMILES | herbicidal effect index, Amaranthus retroflexus (A. retroflexus [1]) | herbicidal effect index, Abutilon theophrasti (Indian millet [2]) | herbicidal effect index, Amaranthus retroflexus (A. retroflexus [3]) | herbicidal effect index, S. juncoides Rocxb. (Scirpus juncoides Rocxb.) | Herbicidal effects index number, Monochoria vaginalis (Monochoria vaginalis) | herbicidal effect index, Abutilon theophrasti (Indian millet [4]) | Herbicidal effects index number, Echinochloa oryzicola (Echinochloa oryzicola) | herbicidal effect index, Echinochloa crus-galli (Echinochloa crus-galli)
Cn1nc(C(=O)C2=C(O)CCCC2=O)c(=O)n(CS(C)(=O)=O)c1=O [Compound I-47] | 10 | 9 | 10 | 10 | 10 | – | – | –
COc1ccc(-n2c(=O)c(C(=O)C3=C(O)CCCC3=O)nn(C)c2=O)cc1 [Compound I-62] | – | 9 | 10 | – | 8 | – | – | –
COc1cc(OC)cc(-n2c(=O)c(C(=O)C3=C(O)CCCC3=O)nn(C)c2=O)c1 [Compound I-94] | 10 | 10 | 10 | 10 | 10 | 10 | – | –
Cc1cc(-n2c(=O)c(C(=O)C3=C(O)CCCC3=O)nn(C)c2=O)no1 [I-189] | 10 | 9 | 10 | 10 | 10 | 10 | – | –
Cn1nc(C(=O)C2=C(O)CCCC2=O)c(=O)n(N2CCS(=O)(=O)CC2)c1=O [I-204] | – | – | 7 | – | 8 | – | – | –
Cn1nc(C(=O)C2=C(O)CCCC2=O)c(=O)n(Cc2ccccc2)c1=O [I-205] | – | 10 | 10 | 10 | 10 | – | 7 | –
O=C1CCCC(O)=C1C(=O)c1nn(-c2ccccc2)c(=O)n(-c2ccccc2)c1=O [I-262] | – | – | – | – | 8 | – | – | –
Cn1nc(C(F)(F)F)cc1-n1c(=O)c(C(=O)C2=C(O)CCCC2=O)nn(C)c1=O [I-272] | 8 | 9 | 10 | 8 | 8 | – | 7 | 6
COc1ccc(-n2c(=O)c(C(=O)C3=C(O)CCCC3=O)nn(C)c2=O)nc1 [I-290] | 8 | 9 | 10 | 10 | 10 | 10 | – | –
Cc1ccc(-n2c(=O)c(C(=O)C3=C(O)CCCC3=O)nn(C)c2=S)nc1 [I-291] | 8 | 9 | 10 | 10 | 10 | 10 | – | –
C=Cc1ccc(-n2c(=O)c(C(=O)C3=C(O)CCCC3=O)nn(C)c2=O)nc1 [I-293] | – | 8 | 10 | 10 | 10 | 10 | – | –
CCCCCCCCn1c(=O)c(C(=O)C2=C(O)CCCC2=O)nn(C)c1=O [I-295] | – | 9 | 8 | – | – | – | – | –
Cn1nc(C(=O)C2=C(O)CCCC2=O)c(=O)n(-c2cc(Cl)c(S(C)(=O)=O)c(Cl)c2)c1=O [I-301] | – | 7 | 10 | 10 | 10 | – | 10 | –
CCCCn1c(=O)c(C(=O)C2=C(O)CCCC2=O)nn(-c2ccccn2)c1=O [I-306] | 10 | 9 | 7 | – | 9 | 7 | – | –
CCCCCn1nc(C(=O)C2=C(O)CCCC2=O)c(=O)n(-c2ccccc2)c1=O [I-308] | 10 | 8 | – | – | 8 | – | – | –
CCc1ccc(-n2c(=O)c(C(=O)C3=C(O)CCCC3=O)nn(C)c2=O)nc1 [I-462] | 9 | 10 | 10 | 10 | 10 | 10 | – | –
CN(c1ccccc1)n1c(=O)c(C(=O)C2=C(O)CCCC2=O)nn(C)c1=O [I-466] | – | 10 | 10 | 10 | 10 | – | 8 | –
Cc1cc(C)nc(-n2c(=O)c(C(=O)C3=C(O)CCCC3=O)nn(C)c2=O)n1 [I-467] | – | 7 | 10 | 10 | 10 | – | – | 8
Cc1cc(C)c(-n2c(=O)c(C(=O)C3=C(O)CCCC3=O)nn(C)c2=O)c(C)c1 [I-472] | – | 7 | 10 | 8 | 10 | – | – | –
Cn1nc(C(=O)C2=C(O)CCCC2=O)c(=O)n(-c2c(F)c(F)c(F)c(F)c2F)c1=O [I-473] | – | 10 | 3 | 8 | 10 | – | 8 | –
Cn1ncc(C(=O)c2nn(C)c(=O)n(-c3ccccc3)c2=O)c1O [II-50, 6-(5-hydroxy-1-methyl-1H-pyrazole-4-carbonyl)-2-methyl-4-phenyl-1,2,4-triazine-3,5 (2H, 4H)-dione] | – | 8 | 10 | 7 | 8 | – | – | –
CCCS(=O)(=O)Oc1c(C(=O)c2nn(C)c(=O)n(-c3ccccc3)c2=O)cnn1C(C)C [II-267, 1-isopropyl-4-(2-methyl-3,5-dioxo-4-phenyl-2,3,4,5-tetrahydro-1,2,4-triazine-6-ylcarbonyl)-1H-pyrazole-5-yl propane-1-sulfonate] | – | 9 | – | – | 8 | – | – | –
COc1cccc(-n2c(=O)c(C(=O)O)nn(C)c2=O)c1 [V-61] | – | – | – | – | – | 8 | – | –
Cc1ccc(-n2c(=O)c(C(=O)O)nn(C)c2=S)nc1 [V-291] | – | – | – | – | 8 | – | – | –
CN(c1ccccc1)n1c(=O)c(C(=O)O)nn(C)c1=O [V-359] | – | 10 | 10 | 10 | 10 | – | 8 | –
Cc1cc(C)nc(-n2c(=O)c(C(=O)O)nn(C)c2=O)n1 [V-360] | – | 7 | 10 | 10 | 10 | – | – | 8
Cc1cc(C)c(-n2c(=O)c(C(=O)O)nn(C)c2=O)c(C)c1 [V-366] | – | 7 | 10 | 8 | 10 | – | – | –
Cn1nc(C(=O)O)c(=O)n(-c2c(F)c(F)c(F)c(F)c2F)c1=O [V-367] | – | 10 | – | 8 | 10 | – | 8 | –
